Reference: US20220105188A1, “TARGET PROTEIN EED DEGRADATION-INDUCING DEGRADUCER, PREPARATION METHOD THEREOF, AND PHARMACEUTICAL COMPOSITION FOR PREVENTING OR TREATING DISEASES RELATED TO EED, EZH2, OR PRC2, COMPRISING SAME AS ACTIVE INGREDIENT” (KOREA RESEARCH INSTITUTE OF CHEMICAL TECHNOLOGY, priority 2019, published 2022)

Molecular target: T1, EED (Homo sapiens, UniProt O75530)
T1 construct: 2×10^5 Hela cells were injected into a 12-well plate; endogenous in cells; host or cells: HeLa
Assay: EED Proteolytic Activity Evaluation 2 (western blot, Hela cells)
Type: cell-based
Conditions: 1 nM, 10 nM, 100 nM and 1000 nM, 20 hours of treatment
Method: [Experiment 2] EED Proteolytic Activity Evaluation 2
In order to evaluate the EED proteolytic activity of the compound according to the present invention, an experiment was conducted as follows.
Specifically, 2×10^5 Hela cells were injected into a 12-well plate, and after 8 hours of stabilization, each well was treated with the example compounds to have final concentrations of 1 nM, 10 nM, 100 nM, and 1000 nM. One well was treated with the volume of DMSO contained in the sample corresponding to the highest concentration in the experimental group. After 20 hours of treatment, the cells were collected and lysed using 80 μl of SDS Lysis buffer (50 mM Tris pH8.0, 1% SDS, 1 mM EDTA, 0.5 mM PMSF, and protease inhibitor cocktail) and then sonication (30 sec on/59 sec off), 5 cycles) to prepare a cell lysate, followed by protein quantification through BCA, followed by Western blot, and the results are shown in Table 3. (Maximum EED degradation rate: A: >50%, B: 25-50%, C: <25%)

T1 sequence (O75530 whole entry): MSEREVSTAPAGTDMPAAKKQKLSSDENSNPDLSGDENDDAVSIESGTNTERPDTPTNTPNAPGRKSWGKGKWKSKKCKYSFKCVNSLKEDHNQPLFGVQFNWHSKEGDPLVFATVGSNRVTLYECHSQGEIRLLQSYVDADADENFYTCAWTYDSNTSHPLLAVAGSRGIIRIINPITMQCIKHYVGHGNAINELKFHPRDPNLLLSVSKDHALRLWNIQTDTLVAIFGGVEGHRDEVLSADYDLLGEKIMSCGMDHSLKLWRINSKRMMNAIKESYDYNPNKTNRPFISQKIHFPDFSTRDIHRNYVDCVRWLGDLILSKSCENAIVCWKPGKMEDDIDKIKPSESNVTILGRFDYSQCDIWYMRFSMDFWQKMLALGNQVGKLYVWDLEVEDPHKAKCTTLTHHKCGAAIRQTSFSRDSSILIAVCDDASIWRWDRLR

Structure (SMILES)	EED degradation rate (Maximum EED degradation rate)
Cc1cccc(F)c1CN1C[C@H](c2ccc(N3CCN(C(=O)CCCCCCCNc4cccc5c4C(=O)N(C4CCC(=O)NC4=O)C5=O)CC3)cc2)[C@@H](N(C)C)C1 (stereo partly drawn) [Example 125, 4-((8-(4-(4-((3S,4R)-4-(dimethylamino)-1-(2-fluoro-6-methylbenzyl)pyrrolidin-3-yl)phenyl)piperazin-1-yl)-8-oxooctyl)amino)-2-(2,6-dioxopiperidin-3-yl)isoindolin-1,3-dione]	A (A: >50%)
Cc1cccc(F)c1CN1C[C@H](c2ccc(N3CCN(C(=O)CCCCCNc4ccc5c(c4)C(=O)N(C4CCC(=O)NC4=O)C5=O)CC3)cc2)[C@@H](N(C)C)C1 (stereo partly drawn) [Example 138, 5-((6-(4-(4-((3S,4R)-4-(dimethylamino)-1-(2-fluoro-6-methylbenzyl)pyrrolidin-3-yl)phenyl)piperazin-1-yl)-6-oxohexyl)amino)-2-(2,6-dioxopiperidin-3-yl)isoindolin-1,3-dione]	B (B: 25-50%)
Cc1cccc(F)c1CN1C[C@H](c2ccc(N3CCN(C(=O)CCC4CCN(C(=O)CNc5ccc6c(c5)C(=O)N(C5CCC(=O)NC5=O)C6=O)CC4)CC3)cc2)[C@@H](N(C)C)C1 (stereo partly drawn) [Example 140, 5-((2-(4-(3-(4-(4-((3S,4R)-4-(dimethylamino)-1-(2-fluoro-6-methylbenzyl)pyrrolidin-3-yl)phenyl)piperazin-1-yl)-3-oxopropyl)piperidin-1-yl)-2-oxoethyl)amino)-2-(2,6-dioxopiperidin-3-yl)isoindolin-1,3-dione]	A (A: >50%)
Cc1cccc(F)c1CN1C[C@H](c2ccc(N3CCN(C(=O)CC4CCN(C(=O)CNc5cccc6c5C(=O)N(C5CCC(=O)NC5=O)C6=O)CC4)CC3)cc2)[C@@H](N(C)C)C1 (stereo partly drawn) [Example 144, 4-((2-(4-(2-(4-(4-((3S,4R)-4-(dimethylamino)-1-(2-fluoro-6-methylbenzyl)pyrrolidin-3-yl)phenyl)piperazin-1-yl)-2-oxoethyl)piperidin-1-yl)-2-oxoethyl)amino)-2-(2,6-dioxopiperidin-3-yl)isoindolin-1,3-dione]	A (A: >50%)
Cc1cccc(F)c1CN1C[C@H](c2ccc(N3CCN(C(=O)COCCOCCNC(=O)CNc4ccc5c(c4)C(=O)N(C4CCC(=O)NC4=O)C5=O)CC3)cc2)[C@@H](N(C)C)C1 (stereo partly drawn) [Example 121, N-(2-(2-(2-(4-(4-((3S,4R)-4-(dimethylamino)-1-(2-fluoro-6-methylbenzyl)pyrrolidin-3-yl)phenyl)piperazin-1-yl)-2-oxoethoxy)ethoxy)ethyl)-2-((2-(2,6-dioxopiperidin-3-yl)-1,3-dioxoisoindolin-5-yl)amino)acetamide]	A (A: >50%)

The next lines start with the values.

EED degradation rate (Maximum EED degradation rate)	Structure (SMILES)
B (B: 25-50%)	Cc1cccc(F)c1CN1C[C@H](c2ccc(N3CCN(C(=O)CCC4CCN(C(=O)COc5ccc6c(c5)C(=O)N(C5CCC(=O)NC5=O)C6=O)CC4)CC3)cc2)[C@@H](N(C)C)C1 (stereo partly drawn) [Example 147, 5-(2-(4-(3-(4-(4-((3S,4R)-4-(dimethylamino)-1-(2-fluoro-6-methylbenzyl)pyrrolidin-3-yl)phenyl)piperazin-1-yl)-3-oxopropyl)piperidin-1-yl)-2-oxoethoxy)-2-(2,6-dioxopiperidin-3-yl)isoindolin-1,3-dione]
A (A: >50%)	Cc1cccc(F)c1CN1C[C@H](c2ccc(N3CCN(CCC4CCN(C(=O)COc5ccc6c(c5)C(=O)N(C5CCC(=O)NC5=O)C6=O)CC4)CC3)cc2)[C@@H](N(C)C)C1 (stereo partly drawn) [Example 150, 5-(2-(4-(2-(4-(4-((3S,4R)-4-(dimethylamino)-1-(2-fluoro-6-methylbenzyl)pyrrolidin-3-yl)phenyl)piperazin-1-yl)ethyl)piperidin-1-yl)-2-oxoethoxy)-2-(2,6-dioxopiperidin-3-yl)isoindolin-1,3-dione]
